In patent publication US8247569B2, “Cyclohexane derivative and pharmaceutical use thereof” (Toray Industries, Inc., priority 2008, dated 2012):
Where two headings read alike, the source gives them in different places.

Tests used:
[1] = system: mouse acetic acid writhing model; assay: mouse acetic acid writhing model (nociceptive pain); format: in vivo; details: for ED50: male ddY mice, oral administration 45 min before 0.6% acetic acid i.p., dose suppressing 50% of writhing responses vs vehicle group, vehicle A or B
[2] = human liver microsomal stability assay; format: in vitro ADME; details: liver microsomes, pH 7.4, human liver microsomes 0.5 mg/mL, test compound 2 μmol/L, 37° C., 0-30 min, read-out: Human hepatic intrinsic clearance
Procedure: A liver microsomal stability assay, which is known to be an in vitro assay for evaluation of the stability of a compound against hepatic metabolism, was carried out to evaluate the stability of Compound (I) against human and mouse hepatic metabolism.
A total of 4 times of experiments were carried out for the combinations of the compound of Example 2-B or the compound of Comparative Example 29 as the test compound and human liver microsomes (Xenotech) or mouse liver microsomes (Xenotech) as the liver microsomes.
The respective reagents to be used for the liver microsomal stability assay were prepared as follows. That is, an appropriate amount of D-glucose 6-phosphate disodium salt (hereinafter referred to as G6P) was dissolved in distilled water at 100 mmol/L, to prepare 100 mmol/L aqueous G6P solution. In 5 mL of distilled water, 1000 units of Glucose 6-phosphate dehydrogenase from Yeast (hereinafter referred to as G6PDH) was dissolved, to prepare 200 units/mL aqueous G6PDH solution. An appropriate amount of MgCl2 was dissolved in distilled water at 100 mmol/L, to prepare 100 mmol/L aqueous MgCl2 solution. To 500 mL of 200 mmol/L aqueous K2HPO4 solution, 200 mmol/L aqueous KH2PO4 solution (about 130 mL) was added, and pH was adjusted to 7.4, to prepare 200 mmol/L KH2PO4/K2HPO4 buffer pH7.4 (hereinafter referred to as 200 mmol/L PB). β-nicotinamide-adenine dinucleotide phosphate, reduced form, tetrasodium salt (hereinafter referred to as (NADPH) was dissolved in distilled water such that the NADPH content becomes 10 mmol/L based on the purity (Purity NADPH) in the assay data described in the attached document, to prepare 10 mmol/L aqueous NADPH solution.
The liver microsomal stability assay was carried out according to the following procedure. First, the reagents listed in Table 12 (excluding microsomes) were mixed together to prepare a reaction mixture, and the reaction mixture was aliquoted in 130 μL volumes to 4 wells (which play roles as the wells for the 0-minute reaction, well for the 30-minute reaction, well for the 20-minute reaction and well for the 10-minute reaction, respectively) in a 96-well tube plate (BM Equipment Co., Ltd; hereinafter referred to as plate). The entire plate was covered with a silicone cap, and the plate was subjected to preincubation by being soaked in a water bath at 37° C. for 10 minutes.
After the preincubation, 3.75 μL of 20 mg/mL microsome suspension+16.25 μL of distilled water (20 μL in total) were added to the well for the 30-minute reaction, and the plate was covered with the cap, followed by soaking the plate in a water bath at 37° C. to initiate the reaction.
Ten minutes after the beginning of the reaction, 3.75 μL of 20 mg/mL microsome suspension+16.25 μL of distilled water (20 μL in total) were added to the well for the 20-minute reaction, and 20 minutes after the beginning of the reaction, 3.75 μL of 20 mg/mL microsome suspension+16.25 μL of distilled water (20 μL in total) were added to the well for the 10-minute reaction. The reaction was further continued by keeping the plate soaked in the water bath at 37° C.
Thirty minutes after the beginning of the reaction, the plate was removed from the water bath, and 120 μL of acetonitrile was added to each well, followed by covering the plate with the cap, stirring the plate for 10 seconds with Direct Mixer, and stopping the reaction by 10 minutes of ice cooling. After the reaction was stopped, 3.75 μL of 20 mg/mL microsome suspension+16.25 μL of distilled water (20 μL in total) were added to the well for the 0-minute reaction.
The reaction liquid in each well was centrifuged at 4° C. at 2500 rpm for 10 minutes, and the supernatant was transferred to a glass-coated microplate (TOMSIC Plate+) to begin LC/MS/MS analysis. The conditions for the LC/MS/MS analysis were as follows: […]

[3] = system: mouse sciatic nerve-ligation model (Seltzer model); assay: mouse partial sciatic nerve ligation model (Seltzer model), von Frey test; details: for von Frey total score compared to the vehicle group: 1 hour after oral administration, doses as in Table 11; for von Frey Total Score Observed 1 Hour after Oral Administration (mean ± standard error), Compound-administered group: n = 5 to 6

Compound | ED50 ([1]; Mus musculus, read-out: ED50) | also measured
OC1CCC(O)(c2cc(-c3ccc(F)cc3)n(-c3ccc(Cl)cc3)n2)CC1 (centres unmarked) [compound 15] | > 10 mg/kg | –
CCc1ccc(-c2cc(C3(O)CCC(O)CC3)nn2-c2ccc(OC)cc2)cc1 (centres unmarked) [Compound 28] | 5.27 mg/kg | –
COc1ccc(-c2nc(C3(O)CCC(O)CC3)oc2-c2ccc(OC)cc2)cc1 (single isomer, unassigned) [Example 67-B, 4-(4,5-Bis(4-methoxyphenyl)oxazol-2-yl)cyclohexan-cis-1,4-diol] | 7.32 mg/kg | microsomal CLint at 2 μmol/L [2]: 12.7 µL/min/mg; von Frey total score compared to the vehicle group [3]: significantly improved; von Frey Total Score Observed 1 Hour after Oral Administration (mean ± standard error), Compound-administered group ([3]; dose 10 mg/kg oral, […]): 0.8 ± 0.7
CCOC(=O)C1CCC(O)(c2cc(-c3ccc(C)cc3)n(-c3ccc(OC)cc3)n2)CC1 (stereo not drawn) [Example 71, Ethyl 4-hydroxy-4-(1-(4-methoxyphenyl)-5-p-tolyl-1H-pyrazol-3-yl)-cis-cyclohexanecarboxylate] | 1.58 mg/kg | –
COc1ccc(-n2nc(C3(OC(C)=O)CCC(O)CC3)cc2-c2ccc(C)cc2)cc1 (centres unmarked) [Comparative Example 26, c-4-Hydroxy-1-(1-(4-methoxyphenyl)-5-(p-tolyl)-1H-pyrazol-3-yl)-cyclohexan-r-1-yl acetate] | > 10 mg/kg | –
Cc1ccc(-c2cc(C3(O)CCC(O)CC3)nn2-c2ccc(F)cc2)cc1 (centres unmarked) [compound 11] | > 10 mg/kg | –
COc1ccc(-n2nc(C3(O)CCC(O)CC3)cc2-c2cccnc2OC)cc1 (centres unmarked) [compound 24] | > 10 mg/kg | –
COc1ccc(-n2nc(C3(O)CCC(O)CC3)c(Cl)c2-c2ccc(C)cc2)cc1 (stereo not drawn) [Example 59, 1-(4-Chloro-1-(4-methoxyphenyl)-5-(p-tolyl)-1H-pyrazol-3-yl)cyclohexan-cis-1,4-diol] | 9.92 mg/kg | microsomal CLint at 2 μmol/L [2]: 44.6 µL/min/mg; von Frey total score compared to the vehicle group [3]: significantly improved; Score improvement rate ([3]; dose 10 mg/kg oral, 1 hour after administration, vehicle A): 66%; von Frey Total Score Observed 1 Hour after Oral Administration (mean ± standard error), Compound-administered group ([3]; dose 10 mg/kg oral, […]): 1.7 ± 0.6
COc1ccc(-n2nc(C3(CO)CCC(O)CC3)cc2-c2ccc(C)cc2)cc1 (stereo not drawn) [Example 65-A, 4-(Hydroxymethyl)-4-(1-(4-methoxyphenyl)-5-p-tolyl-1H-pyrazol-3-yl)-trans-1,4-cyclohexanol] | 1.44 mg/kg | –
Cc1ccc(-n2nc(C3(O)CCC(O)CC3)cc2-c2ccc(F)cc2)cc1 (centres unmarked) [compound 21] | > 10 mg/kg | –
COc1ccc(-n2nc(C3(O)CCC(O)CC3)cc2-c2ccc(C)cc2)cc1F (centres unmarked) [Compound 30] | – | von Frey Total Score Observed 1 Hour after Oral Administration (mean ± standard error), Compound-administered group ([3]; dose 10 mg/kg oral, […]): 1.2 ± 0.6
NCC1(CC(=O)O)CCCCC1 [gabapentin, reference compound] | – | analgesic effect 3 hours after the oral administration (von Frey test) ([3]; positive controls, gabapentin 30 mg/kg oral, dose of Comparative Example 29 not given): drastically decreased; time of strongest analgesic effect after oral administration (von Frey test) ([3]; positive controls, gabapentin 30 mg/kg oral, dose of Comparative Example 29 not given, FIGS. 1 to 4): 1 h
NS(=O)(=O)c1ccc(-n2nc(C3CCCCC3)cc2-c2ccccc2)cc1CO [Comparative Example 30, 4-(3-Cyclohexyl-5-phenyl-1H-pyrazol-1-yl)-2-(hydroxymethyl)benzenesulfonamide] | > 10 mg/kg | reduction in the number of writhing responses ([1]; administration of 10 mg/kg, t-test): did not cause significant reduction
Cc1ccc(-c2cc(C3(O)CCC(O)CC3)nn2-c2ccc(S(C)(=O)=O)cc2)cc1 (centres unmarked) [compound 23] | > 10 mg/kg | –
OC1CCC(O)(c2cc(-c3ccc(F)cc3)n(-c3ccccc3)n2)CC1 (centres unmarked) [compound 19] | > 10 mg/kg | –
COc1ccc(-n2nc(C3(O)CCC(O)CC3)cc2-c2ccc(F)cc2)cc1 (centres unmarked) [compound 13] | > 10 mg/kg | –
COc1ccc(-c2nc(C3(O)CCC(O)(C(F)(F)F)CC3)sc2-c2ccc(C)cc2)cc1 (stereo not drawn) [Example 70-B, 1-(4-(4-Methoxyphenyl)-5-(p-tolyl)thiazol-2-yl)-4-(trifluoromethyl)cyclohexan-cis-1,4-diol] | – | ED50 [1]: 9.65 mg/kg
COc1ccc(-n2nc(C3(O)CCC(O)CC3)cc2-c2ccc(C)cc2)cc1F (centres unmarked) [Example 30] | – | microsomal CLint at 2 μmol/L [2]: 3.92 µL/min/mg

Compound | ED50 ([1]; Mus musculus, read-out: ED50) | also measured
COc1ccc(-n2nc(C3(O)CCC(O)CC3)cc2-c2ccc(S(C)(=O)=O)cc2)cc1 (centres unmarked) [Comparative Example 3] | > 10 mg/kg | –
COc1ccc(-n2nc(C3(OC)CCC(O)CC3)cc2-c2ccc(C)cc2)cc1 (centres unmarked) [Comparative Example 27, 4-Methoxy-4-(1-(4-methoxyphenyl)-5-p-tolyl-1H-pyrazol-3-yl)cyclohexanol] | > 10 mg/kg | –
OC1CCC(O)(c2cc(-c3ccc(Cl)cc3)n(-c3ccc(F)cc3)n2)CC1 (centres unmarked) [compound 5] | > 10 mg/kg | –
COc1ccc(-n2nc(C3(O)CCC(O)CC3)cc2-c2ccccc2C)cc1 (centres unmarked) [compound 1] | > 10 mg/kg | –
COc1ccc(-n2nc(C3(O)CCC(O)CC3)c(F)c2-c2ccc(C)cc2)cc1 (stereo not drawn) [Comparative Example 28, 1-(4-Fluoro-1-(4-methoxyphenyl)-5-(p-tolyl)-1H-pyrazol-3-yl)cyclohexan-cis-1,4-diol] | > 10 mg/kg | –
COc1ccc(-n2nc(C3(O)CCC(O)CC3)cc2-c2ccc(C)c(F)c2)cc1 (centres unmarked) [Compound 31] | 0.41 mg/kg | von Frey Total Score Observed 1 Hour after Oral Administration (mean ± standard error), Compound-administered group ([3]; dose 3 mg/kg oral, vehicle B (27% HP-β-CD)): 0.7 ± 0.5
CCc1ccc(-c2cc(C3(O)CCC(O)CC3)nn2-c2ccc(OC)cc2)cc1 (centres unmarked) [Example 28] | – | microsomal CLint at 2 μmol/L [2]: 3.19 µL/min/mg
Cc1ccc(-c2cc(C3(O)CCC(O)CC3)nn2-c2ccc(Cl)cc2)cc1 (stereo not drawn) [Example 6-A, 1-(1-(4-Chlorophenyl)-5-p-tolyl-1H-pyrazol-3-yl)cyclohexan-trans-1,4-diol] | 7.97 mg/kg | –
COc1ccc(-n2nc(C3(O)CCCCC3)cc2-c2ccc(C)cc2)cc1 [Compound 1] | 3.78 mg/kg | –
COc1ccc(-n2nc(C3(F)CCC(O)CC3)cc2-c2ccc(C)cc2)cc1 (centres unmarked) [Example 60, t-4-Fluoro-4-(1-(4-methoxyphenyl)-5-(p-tolyl)-1H-pyrazol-3-yl)-cyclohexan-r-1-ol] | 1.37 mg/kg | –
OC1CCC(O)(c2cc(-c3ccc(F)cc3)n(-c3ccc(F)cc3)n2)CC1 (centres unmarked) [compound 17] | > 10 mg/kg | –
COc1ccc(-n2nc(C3(O)CCC(O)CC3)cc2-c2cccc(C)c2)cc1 (centres unmarked) [compound 10] | > 10 mg/kg | –
COc1ccc(-n2nc(C3(O)CCC(OC)CC3)cc2-c2ccc(C)cc2)cc1 (centres unmarked) [Example 63, 4-Methoxy-1-(1-(4-methoxyphenyl)-5-(p-tolyl)-1H-pyrazol-3-yl)cyclohexanol] | 5.36 mg/kg | –
COc1ccc(-c2cc(C3(O)CCC(O)CC3)nn2-c2ccc(OC)cc2)cc1 (single isomer, unassigned) [Example 4-B, 1-(1,5-Bis(4-methoxyphenyl)-1H-pyrazol-3-yl)cyclohexan-cis-1,4-diol] | – | microsomal CLint at 2 μmol/L [2]: 8.69 µL/min/mg; von Frey total score compared to the vehicle group [3]: significantly improved; von Frey Total Score Observed 1 Hour after Oral Administration (mean ± standard error), Compound-administered group ([3]; dose 10 mg/kg oral, […]): 2.2 ± 0.5
OC1CCC(O)(c2cc(-c3ccc(Cl)cc3)n(-c3ccc(Cl)cc3Cl)n2)CC1 (centres unmarked) [compound 7] | > 10 mg/kg | –
COc1ccc(-c2nc(C3(O)CCC(O)CC3)sc2-c2ccc(C)cc2)cc1 (stereo not drawn) [Example 69-A, 1-(4-(4-Methoxyphenyl)-5-(p-tolyl)thiazol-2-yl)cyclohexan-trans-1,4-diol] | 3.02 mg/kg | –
COc1ccc(-n2nc(C3(O)CCC(O)CC3)cc2-c2ccc(C)cc2)cc1F (centres unmarked) [Compound 29] | 3.77 mg/kg | –
